Activity calls are given as the source filed them.
Tests used:
[1] = HeLa 2N DNA content increase, dose response, cell-based, IC50 (AID 1117349); type: functional
[2] = Concentration-dependent survival of SW480 colon cancer line, luminescence detection with CellTiter-Glo, half-maximal inhibitory concentration (AID 1117338); type: functional
[3] = cytotoxicity toward Colo320 cells – cell-based, CellTiter-Glo luminescence, IC50, dose response (AID 1117334); type: functional; conditions: COLO 320
[4] = SNU-C1 cell viability reduction, dose response, CellTiter-Glo luminescence (AID 1117323); type: functional, cell-based
[5] = HCT116 cell viability decrease, GSK3B pretreatment – CellTiter-Glo, IC50, dose response (AID 1117339); type: functional; conditions: HCT-116
[6] = CellTiter-Glo luminescent dose response of DLD-1 viability loss (AID 1117352); type: functional
[7] = cytotoxicity toward HCT116 cells – cell-based, CellTiter-Glo luminescence, IC50, dose response (AID 1117332); type: functional; conditions: HCT-116
[8] = cytotoxicity toward HT-29 cells – cell-based, CellTiter-Glo luminescence, IC50, dose response (AID 1117330); type: functional
[9] = HeLa 4N DNA content increase, dose response, cell-based, IC50 (AID 1117351); type: functional
[10] = RKO cell viability reduction, dose response, CellTiter-Glo luminescence (AID 1117322); type: functional
[11] = molecular target: Mitogen-activated protein kinase 10 (Homo sapiens, UniProt P53779); experiment: Dose response biochemical screening assay for inhibitors of c-Jun N-Terminal Kinase 3 (JNK3). [Related pubchem assays: 746 ]
Mitogen-activated protein kinase 10, sequence (P53779 whole entry, the tested form may be a part): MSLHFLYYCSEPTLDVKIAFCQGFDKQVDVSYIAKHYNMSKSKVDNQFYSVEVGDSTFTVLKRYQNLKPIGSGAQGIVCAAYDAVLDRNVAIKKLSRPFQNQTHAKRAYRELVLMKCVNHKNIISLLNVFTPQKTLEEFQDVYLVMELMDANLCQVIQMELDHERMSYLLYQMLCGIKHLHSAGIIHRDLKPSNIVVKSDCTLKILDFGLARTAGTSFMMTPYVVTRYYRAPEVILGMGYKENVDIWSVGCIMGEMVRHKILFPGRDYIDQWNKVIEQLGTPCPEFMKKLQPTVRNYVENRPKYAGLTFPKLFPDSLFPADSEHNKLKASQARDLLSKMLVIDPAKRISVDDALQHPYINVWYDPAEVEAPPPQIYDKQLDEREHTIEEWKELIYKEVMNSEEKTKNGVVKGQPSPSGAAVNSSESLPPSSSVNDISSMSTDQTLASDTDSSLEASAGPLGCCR

[12] = inhibitors of HIV Env-driven cell fusion, dose response, cherry-pick (AID 652057); type: functional, cell-based
[13] = Shn3 3'UTR reporter inhibitors, dose response, cell-based, Clone20 osteoblasts, firefly luciferase, cherry-picked (AID 624132); type: functional;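 also: firefly luciferase luminescence from reporter carrying the Shn3 3'UTR in osteoblasts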
[14] = reduction of Shn3 3'UTR firefly luciferase signal, dose response, Schnurri-3 inhibitor project, cell-based, Clone20 osteoblasts, cherry-pick, set 2 (AID 720490); type: functional;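 also: actives lower the luminescence signal as inhibitors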
[15] = inhibitors of clade B AD8 Env fusion, dose response, cell-based, cherry-pick (AID 652062); type: functional;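 also: luciferase signal from cell-cell fusion driven by HIV-1 clade B AD8 Env; potency is for inhibitors of fusion seen as a drop in luminescence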
[16] = ZM109 Env clade C HIV-1 fusion inhibitors, dose response, HeLa effector, CEM target cells, luciferase, cherry-pick (AID 652058); type: functional, cell-based
[17] = control 3'UTR Renilla luciferase suppression, dose response, counter-screen for Shn3 inhibitor project, cell-based, Clone20-Shn3RL, cherry-picked (AID 624133); type: functional
[18] = off-target signal loss in HeLa-CEM21 co-culture – HeLa F-luc CTL cells, cherry-picked, counter-screen for HIV-1 Env fusion inhibitor project, dose response (AID 652040); type: functional, cell-based;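 also: potency for signal decrease marking cytotoxic or nonspecific inhibition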
[19] = HepG2 cell cytotoxicity, dose response, cytotoxicity control for Shn3 inhibitor project, CellTiter-Glo, cherry-picked (AID 624134); type: functional, cell-based
Kallikrein-7 = Kallikrein-7 (Homo sapiens, UniProt P49862); experiment: Fluorescence Intensity-based biochemical primary high throughput dose response assay to identify activators of kallikrein-7 (K7) zymogen.
Kallikrein-7, sequence (P49862 whole entry): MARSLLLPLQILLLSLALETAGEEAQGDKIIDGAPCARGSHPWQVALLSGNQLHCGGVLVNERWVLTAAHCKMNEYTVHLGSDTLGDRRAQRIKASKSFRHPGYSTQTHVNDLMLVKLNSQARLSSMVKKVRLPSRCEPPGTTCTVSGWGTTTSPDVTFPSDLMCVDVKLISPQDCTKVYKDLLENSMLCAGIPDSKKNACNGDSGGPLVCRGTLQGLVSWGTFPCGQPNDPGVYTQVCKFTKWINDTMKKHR

[20] = molecular target: Glutathione-S-transferase (Schistosoma japonicum, UniProt Q26513); experiment: biotin-GST/anti-GST TR-FRET signal inhibitors, dose response, artefact control for Vif-APOBEC3G degradation inhibitor project, biochemical (AID 1117362); type: functional
Glutathione-S-transferase, sequence (Q26513 whole entry): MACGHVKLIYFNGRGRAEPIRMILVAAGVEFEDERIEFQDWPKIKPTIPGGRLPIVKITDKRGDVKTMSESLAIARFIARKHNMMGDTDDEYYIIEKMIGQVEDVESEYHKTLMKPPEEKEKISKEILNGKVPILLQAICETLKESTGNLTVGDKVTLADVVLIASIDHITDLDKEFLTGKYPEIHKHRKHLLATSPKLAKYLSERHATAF

cells = type: functional
[21] = molecular target: Ras and Rab interactor 1/Tyrosine-protein kinase ABL1 (Homo sapiens, UniProt P00519+Q13671); type: functional;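 also: biochemical TR-FRET dose-response test measuring inhibition of binding between Rin1 and Abl proteins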
Nonstructural protein 1 = Nonstructural protein 1 (Influenza A virus, UniProt Q194T2); type: functional, Influenza A virus (A/California/07/2009(H1N1))
Nonstructural protein 1, sequence (Q194T2 whole entry): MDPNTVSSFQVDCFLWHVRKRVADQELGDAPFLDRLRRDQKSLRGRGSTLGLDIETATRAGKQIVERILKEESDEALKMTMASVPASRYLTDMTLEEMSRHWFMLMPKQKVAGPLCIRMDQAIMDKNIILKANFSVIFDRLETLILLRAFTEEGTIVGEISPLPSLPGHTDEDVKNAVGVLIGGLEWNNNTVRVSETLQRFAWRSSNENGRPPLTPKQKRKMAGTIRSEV

Paired box protein Pax-8 = Paired box protein Pax-8 (Homo sapiens, UniProt Q06710); experiment: inhibitors of PAX8-driven TPO luciferase reporter, dose response, RMG-I cells, cherry-pick (AID 687027); type: functional, cell-based;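 also: luciferase reporter driven by Pax8 target thyroperoxidase promoter measured by SteadyGlo luminescence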
Paired box protein Pax-8, sequence (Q06710 whole entry): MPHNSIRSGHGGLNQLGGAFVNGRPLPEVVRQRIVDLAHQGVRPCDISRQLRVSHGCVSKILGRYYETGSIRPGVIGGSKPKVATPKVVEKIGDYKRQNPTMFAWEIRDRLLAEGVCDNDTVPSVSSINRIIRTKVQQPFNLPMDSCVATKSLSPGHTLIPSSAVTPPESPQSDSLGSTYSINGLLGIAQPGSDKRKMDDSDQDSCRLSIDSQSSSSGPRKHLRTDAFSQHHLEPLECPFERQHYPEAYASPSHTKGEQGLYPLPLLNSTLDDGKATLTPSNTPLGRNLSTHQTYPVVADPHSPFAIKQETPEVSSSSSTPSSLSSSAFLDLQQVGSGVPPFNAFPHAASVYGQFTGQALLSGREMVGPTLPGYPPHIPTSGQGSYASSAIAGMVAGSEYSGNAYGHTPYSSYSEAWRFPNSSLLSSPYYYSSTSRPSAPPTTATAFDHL

[22] = molecular target: T1, Microphthalmia-associated transcription factor (Homo sapiens, UniProt O75030); experiment: TRPM1 promoter luciferase signal decrease, dose response, MITF inhibitor project, cell-based, SK-MEL-5, cherry-picked, set 3 (AID 493073); type: functional
T1 sequence (O75030 whole entry): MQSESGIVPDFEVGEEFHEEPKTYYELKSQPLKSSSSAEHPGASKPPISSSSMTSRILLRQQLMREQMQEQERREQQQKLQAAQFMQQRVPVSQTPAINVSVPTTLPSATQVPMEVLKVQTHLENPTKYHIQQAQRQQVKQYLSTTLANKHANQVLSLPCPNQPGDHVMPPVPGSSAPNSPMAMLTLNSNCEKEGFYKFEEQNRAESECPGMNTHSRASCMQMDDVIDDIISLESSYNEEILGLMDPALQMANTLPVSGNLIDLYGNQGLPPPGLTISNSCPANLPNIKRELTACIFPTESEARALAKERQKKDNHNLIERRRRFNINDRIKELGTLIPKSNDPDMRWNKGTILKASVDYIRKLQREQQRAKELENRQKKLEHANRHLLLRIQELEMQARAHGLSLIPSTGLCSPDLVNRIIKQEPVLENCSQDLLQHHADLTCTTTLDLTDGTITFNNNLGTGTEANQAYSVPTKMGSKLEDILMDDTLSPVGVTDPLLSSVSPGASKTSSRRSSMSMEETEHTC

H9c2 = experiment: cells; type: functional, cell-based; conditions: Rattus norvegicus, H9c2, Myocardium;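 also: confirmatory concentration-response retest of ultra-high-throughput screening hits for modulation of myocardial damage; cell death induced by hydrogen peroxide oxidative stress; compound pretreatment for 60 min then peroxide exposure for 2 h; potency is for protecting the cells against peroxide damage rather than for killing them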
[23] = molecular target: T2, Mannose-6-phosphate isomerase (Homo sapiens, UniProt P34949); experiment: human PMI inhibitors, high substrate, primary screen, biochemical, fluorescence intensity, high mannose 6-phosphate (AID 1220)
T2 sequence (P34949 whole entry): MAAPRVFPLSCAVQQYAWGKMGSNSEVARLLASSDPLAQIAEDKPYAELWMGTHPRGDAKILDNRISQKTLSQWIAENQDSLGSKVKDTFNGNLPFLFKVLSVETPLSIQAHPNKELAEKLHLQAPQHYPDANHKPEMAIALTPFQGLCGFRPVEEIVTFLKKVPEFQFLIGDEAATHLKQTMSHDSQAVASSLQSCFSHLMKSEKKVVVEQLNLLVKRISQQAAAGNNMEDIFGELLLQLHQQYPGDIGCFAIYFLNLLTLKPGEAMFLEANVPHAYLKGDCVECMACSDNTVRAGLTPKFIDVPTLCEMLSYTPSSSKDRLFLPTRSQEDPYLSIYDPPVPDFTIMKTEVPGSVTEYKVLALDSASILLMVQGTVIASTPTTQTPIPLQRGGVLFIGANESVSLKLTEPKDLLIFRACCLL

[24] = molecular target: T3, Zinc finger protein mex-5 (Caenorhabditis elegans, UniProt Q9XUB2); experiment: MEX-5/TCR-2 RNA interaction inhibitors, dose response, biochemical, C. elegans, fluorescence polarization (AID 1960)
T3 sequence (Q9XUB2 whole entry): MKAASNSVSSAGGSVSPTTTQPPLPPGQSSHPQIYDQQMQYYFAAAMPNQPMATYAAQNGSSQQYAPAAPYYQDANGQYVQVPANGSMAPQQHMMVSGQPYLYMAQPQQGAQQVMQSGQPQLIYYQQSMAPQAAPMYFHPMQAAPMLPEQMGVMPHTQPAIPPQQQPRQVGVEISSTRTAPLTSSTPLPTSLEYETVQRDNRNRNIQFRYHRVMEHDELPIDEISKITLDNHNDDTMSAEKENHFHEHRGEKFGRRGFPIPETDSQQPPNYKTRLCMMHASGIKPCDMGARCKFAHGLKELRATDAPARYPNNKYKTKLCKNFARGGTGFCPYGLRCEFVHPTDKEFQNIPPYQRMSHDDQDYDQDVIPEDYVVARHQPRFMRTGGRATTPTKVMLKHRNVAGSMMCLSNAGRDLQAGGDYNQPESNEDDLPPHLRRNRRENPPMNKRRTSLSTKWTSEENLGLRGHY

[25] = molecular target: 1-phosphatidylinositol 4,5-bisphosphate phosphodiesterase gamma-1 (Homo sapiens, UniProt P19174); experiment: Counterscreen for inhibitors of phospholipase C isozymes (PLC-B3): Fluorescence-based biochemical high throughput dose response assay to identify inhibitors of phospholipase C isozymes (PLC-gamma1).
1-phosphatidylinositol 4,5-bisphosphate phosphodiesterase gamma-1, sequence (P19174 whole entry): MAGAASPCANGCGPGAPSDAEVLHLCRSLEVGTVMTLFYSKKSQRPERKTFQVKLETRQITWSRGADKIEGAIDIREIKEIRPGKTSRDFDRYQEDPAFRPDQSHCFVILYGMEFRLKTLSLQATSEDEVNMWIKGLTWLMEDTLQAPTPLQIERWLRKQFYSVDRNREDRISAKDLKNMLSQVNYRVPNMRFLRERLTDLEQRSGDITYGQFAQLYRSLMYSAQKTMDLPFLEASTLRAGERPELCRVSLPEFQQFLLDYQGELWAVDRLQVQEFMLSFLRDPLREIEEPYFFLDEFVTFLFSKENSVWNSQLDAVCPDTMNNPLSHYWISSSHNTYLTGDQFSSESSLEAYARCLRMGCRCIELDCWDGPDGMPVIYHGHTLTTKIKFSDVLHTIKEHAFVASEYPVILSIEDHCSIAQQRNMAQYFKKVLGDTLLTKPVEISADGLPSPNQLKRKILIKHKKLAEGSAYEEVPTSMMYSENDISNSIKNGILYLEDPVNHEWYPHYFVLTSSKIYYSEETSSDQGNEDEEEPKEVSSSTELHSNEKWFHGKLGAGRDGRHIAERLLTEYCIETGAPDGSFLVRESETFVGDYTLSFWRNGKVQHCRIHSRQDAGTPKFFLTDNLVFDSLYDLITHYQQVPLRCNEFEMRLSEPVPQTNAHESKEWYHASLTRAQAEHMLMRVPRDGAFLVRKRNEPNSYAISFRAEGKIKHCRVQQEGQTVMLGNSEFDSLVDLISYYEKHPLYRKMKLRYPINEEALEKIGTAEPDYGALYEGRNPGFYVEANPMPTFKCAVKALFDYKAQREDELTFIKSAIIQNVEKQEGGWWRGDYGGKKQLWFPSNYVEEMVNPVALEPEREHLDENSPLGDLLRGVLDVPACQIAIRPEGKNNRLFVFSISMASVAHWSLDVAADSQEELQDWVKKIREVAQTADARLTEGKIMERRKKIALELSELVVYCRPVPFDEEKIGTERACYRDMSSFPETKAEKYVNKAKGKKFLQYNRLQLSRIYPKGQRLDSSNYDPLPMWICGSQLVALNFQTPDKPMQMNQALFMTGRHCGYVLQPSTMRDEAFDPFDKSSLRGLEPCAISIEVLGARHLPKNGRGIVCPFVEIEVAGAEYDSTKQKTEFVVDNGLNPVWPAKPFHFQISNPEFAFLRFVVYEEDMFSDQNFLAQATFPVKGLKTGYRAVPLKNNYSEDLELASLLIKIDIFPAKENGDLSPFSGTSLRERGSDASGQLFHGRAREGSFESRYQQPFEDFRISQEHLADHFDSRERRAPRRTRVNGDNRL

[26] = molecular target: Glucose-6-phosphate 1-dehydrogenase (Homo sapiens, UniProt P11413); experiment: human G6PD enzyme inhibitors, dose response, selectivity assay for P. falciparum G6PD inhibitor project, biochemical, fluorescence (AID 504792); type: functional
Glucose-6-phosphate 1-dehydrogenase, sequence (P11413 whole entry, the tested form may be a part): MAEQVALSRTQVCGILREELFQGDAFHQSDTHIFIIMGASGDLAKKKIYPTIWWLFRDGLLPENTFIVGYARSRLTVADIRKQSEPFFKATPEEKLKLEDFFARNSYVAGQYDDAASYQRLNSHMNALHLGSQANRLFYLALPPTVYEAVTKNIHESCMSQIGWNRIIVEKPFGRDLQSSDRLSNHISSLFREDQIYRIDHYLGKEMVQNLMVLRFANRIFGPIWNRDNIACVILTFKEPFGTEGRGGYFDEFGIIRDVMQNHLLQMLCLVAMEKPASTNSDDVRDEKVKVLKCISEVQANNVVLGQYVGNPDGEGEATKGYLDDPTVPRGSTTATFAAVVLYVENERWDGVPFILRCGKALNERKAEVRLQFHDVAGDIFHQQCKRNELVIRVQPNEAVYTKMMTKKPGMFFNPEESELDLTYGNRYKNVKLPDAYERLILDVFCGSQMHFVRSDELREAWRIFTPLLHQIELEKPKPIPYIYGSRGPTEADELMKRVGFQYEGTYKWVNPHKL

[27] = molecular target: T4, RNA-binding protein pos-1 (Caenorhabditis elegans, UniProt G5EF15); experiment: inhibitors of POS-1/mex-3 RNA binding, dose response, biochemical, fluorescence polarization (AID 1964);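 also: purified POS-1 fused to maltose binding protein made in E. coli; potency of compounds blocking POS-1 binding to fluorescent RNA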
T4 sequence (G5EF15 whole entry): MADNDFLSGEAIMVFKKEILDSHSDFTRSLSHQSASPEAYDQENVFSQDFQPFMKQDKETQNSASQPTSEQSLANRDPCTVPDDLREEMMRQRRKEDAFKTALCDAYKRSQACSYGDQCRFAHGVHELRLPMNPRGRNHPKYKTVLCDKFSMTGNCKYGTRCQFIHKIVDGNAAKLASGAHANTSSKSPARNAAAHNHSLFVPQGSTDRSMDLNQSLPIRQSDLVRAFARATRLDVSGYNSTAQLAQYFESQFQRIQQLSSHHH

[28] = molecular target: 1-phosphatidylinositol 4,5-bisphosphate phosphodiesterase beta-3 (Homo sapiens, UniProt Q01970); experiment: Fluorescence-based biochemical high throughput dose response assay to identify inhibitors of phospholipase C isozymes (PLC-B3).
1-phosphatidylinositol 4,5-bisphosphate phosphodiesterase beta-3, sequence (Q01970 whole entry, the tested form may be a part): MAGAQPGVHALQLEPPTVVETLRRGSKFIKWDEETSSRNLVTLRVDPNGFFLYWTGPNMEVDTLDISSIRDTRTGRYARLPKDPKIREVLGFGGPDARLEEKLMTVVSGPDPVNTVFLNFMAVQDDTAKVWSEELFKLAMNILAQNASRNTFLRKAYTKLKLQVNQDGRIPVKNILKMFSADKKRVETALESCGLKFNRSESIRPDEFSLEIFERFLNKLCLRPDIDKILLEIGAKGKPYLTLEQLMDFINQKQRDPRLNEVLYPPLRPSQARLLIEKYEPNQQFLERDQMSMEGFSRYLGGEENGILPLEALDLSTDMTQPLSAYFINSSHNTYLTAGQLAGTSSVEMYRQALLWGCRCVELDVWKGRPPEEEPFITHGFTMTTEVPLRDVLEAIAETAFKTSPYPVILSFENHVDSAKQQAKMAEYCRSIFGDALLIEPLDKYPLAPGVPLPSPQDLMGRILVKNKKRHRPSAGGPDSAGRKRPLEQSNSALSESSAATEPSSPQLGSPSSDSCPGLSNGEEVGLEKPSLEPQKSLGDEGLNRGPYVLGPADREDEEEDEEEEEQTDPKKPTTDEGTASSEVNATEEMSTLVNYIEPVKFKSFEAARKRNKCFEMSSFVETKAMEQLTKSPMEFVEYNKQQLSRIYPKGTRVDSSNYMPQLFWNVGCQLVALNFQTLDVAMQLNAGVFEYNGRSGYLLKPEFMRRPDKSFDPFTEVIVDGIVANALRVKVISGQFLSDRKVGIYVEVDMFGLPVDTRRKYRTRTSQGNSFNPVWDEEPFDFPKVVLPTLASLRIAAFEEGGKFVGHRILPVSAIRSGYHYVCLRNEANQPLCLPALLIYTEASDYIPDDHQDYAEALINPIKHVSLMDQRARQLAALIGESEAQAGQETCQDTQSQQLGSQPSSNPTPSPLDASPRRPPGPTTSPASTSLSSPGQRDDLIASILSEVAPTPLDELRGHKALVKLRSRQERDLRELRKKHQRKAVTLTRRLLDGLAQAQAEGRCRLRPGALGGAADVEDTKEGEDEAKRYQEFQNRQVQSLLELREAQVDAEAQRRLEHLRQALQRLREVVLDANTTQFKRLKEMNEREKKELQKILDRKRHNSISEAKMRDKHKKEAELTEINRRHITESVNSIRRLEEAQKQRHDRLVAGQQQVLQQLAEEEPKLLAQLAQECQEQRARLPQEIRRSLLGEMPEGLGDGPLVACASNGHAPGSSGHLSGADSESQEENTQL

[29] = molecular target: T5, Carboxy-terminal domain RNA polymerase II polypeptide A small phosphatase 1 (Homo sapiens, UniProt Q9GZU7); experiment: inhibitors of CTDSP1, concentration-response testing, biochemical assay, absorbance-based, actives from ultra-high-throughput screening (AID 540297); type: functional
T5 sequence (Q9GZU7 whole entry): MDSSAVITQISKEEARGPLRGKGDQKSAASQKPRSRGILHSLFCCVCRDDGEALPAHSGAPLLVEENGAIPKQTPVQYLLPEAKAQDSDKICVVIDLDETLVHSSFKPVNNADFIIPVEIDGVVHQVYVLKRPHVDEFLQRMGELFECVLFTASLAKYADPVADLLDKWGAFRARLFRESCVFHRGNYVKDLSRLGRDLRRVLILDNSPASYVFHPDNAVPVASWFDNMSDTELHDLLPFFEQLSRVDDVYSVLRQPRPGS

Structure (SMILES): COc1c(C)c2c(c(O)c1C/C=C(\C)CCC(=O)OCCN1CCOCC1)C(=O)OC2 [MYCOPHENOLATE MOFETIL]
- IC50 [1]: > 10 µM (inactive)
- IC50 [2]: 2.6 µM (active)
- IC50 [3]: 0.001 µM (active)
- IC50 [4]: > 20 µM (inactive)
- IC50 [5]: 0.0498 µM (active)
- IC50 [6]: > 20 µM (inactive)
- IC50 [7]: 0.0672 µM (active)
- IC50 [8]: > 20 µM (inactive)
- IC50 [9]: > 10 µM (inactive)
- IC50 [10]: 0.165 µM (active)

Structure (SMILES): CCOc1cccc(NC(=O)C2CCCN(S(=O)(=O)c3ccc(-n4cnnn4)cc3)C2)c1 (centres undefined)
- IC50 [11]: > 93.1 µM (not active)

Structure (SMILES): CCOc1ccc(N(C)S(=O)(=O)c2cc(-c3cc(C)no3)ccc2C(C)C)cc1
- AC50 [12]: 1.32 µM (active)
- AC50 [13]: 4.13 µM (active)
- AC50 [14]: 5.22 µM (active)
- AC50 [15]: 7.87 µM (active)
- AC50 [16]: 3 µM (active)
- AC50 [17]: 16.7 µM (active)
- AC50 [18]: 1.27 µM (active)
- AC50 [19]: 58.4 µM (active)

Structure (SMILES): CCN1CCN(c2cc(C)c3cc(NC(=O)c4ccc(C)c(C)c4)ccc3n2)CC1
- EC50 (Kallikrein-7): 17.2 µM (inactive)

Structure (SMILES): COC(=O)c1cccc(NC(=O)CN2CCC(NC(=O)c3cc(OC)c(OC)c(OC)c3)CC2)c1
- IC50 [11]: 1.7 µM (active)

Structure (SMILES): CC[n+]1ccc(C)c2cc([S+]([O-])C(F)(F)F)ccc21 (centres undefined)
- IC50 [20]: 55.4 µM (active)

Structure (SMILES): CCOC(=O)COc1ccc2c(c1)C(=O)CC1(CCCCC1)O2
- IC50 (cells): 1.18 µM (active)
- EC50 (Kallikrein-7): > 69.5 µM (inactive)

Structure (SMILES): Cc1c(F)cccc1NC(=O)CCCCCC1NC(=O)NC1C (centres undefined)
- IC50 [21]: 0.0143 µM (active)
- IC50 [20]: 29.8 µM (active)
- IC50 (Nonstructural protein 1): 1.18 µM (active)

Structure (SMILES): Cc1ccc(-c2cn3cc(C)ccc3n2)cc1
- AC50 [13]: 1.32 µM (active)
- AC50 [14]: 7.73 µM (active)
- AC50 (Paired box protein Pax-8): 3.46 µM (active)
- AC50 [22]: 2.03 µM (active)

Structure (SMILES): Cc1ccc2nc(N)[nH]c(=O)c2c1Sc1ccncc1
- IC50 [1]: > 10 µM (inactive)
- IC50 [2]: 2.24 µM (active)
- IC50 [3]: > 20 µM (inactive)
- IC50 [4]: > 20 µM (inactive)
- IC50 [5]: 0.83 µM (active)
- IC50 [6]: > 20 µM (inactive)
- IC50 [7]: 3.5 µM (active)
- IC50 [8]: 4.75 µM (active)
- IC50 [9]: > 10 µM (inactive)
- IC50 [10]: 0.343 µM (active)

Structure (SMILES): Fc1ccc(NC(S)=Nc2ccc3nccnc3c2)cc1
- IC50 (H9c2): 22.5 µM (active)
- IC50 [23]: > 50 µM (not active)

Structure (SMILES): O=C(O)c1ccc(-n2c(-c3cc(-c4ccco4)[nH]n3)n[nH]c2=S)cc1
- EC50 [24]: 4.74 µM (inconclusive)
- IC50 [25]: 102 µM (inactive)
- IC50 [26]: > 80 µM (inactive)
- EC50 [27]: 4.19 µM (inconclusive)
- IC50 [28]: > 122 µM (inactive)
- IC50 [29]: 1.59 µM (active)

Source: ChEMBL document CHEMBL1201862, “PubChem BioAssay data set” (2004)
